Assay results published in patent US11208433B2, “Peptide for inhibiting skin inflammation and composition for preventing or treating skin inflammation containing the same” (AVIXGEN Inc., priority 2017, dated 2021).

Legend:
[1] = system: atopic dermatitis animal model; assay: Ear thickness measurement in atopic dermatitis animal model; type: in vivo, NC/Nga mouse; details: FIG. 2
Experimental: After the ear auricle of the NC/Nga mouse was shaved with a razor, the epilating agent was applied in an appropriate amount for the complete depilation. After the epilating agent was wiped off, Then, 100 mg of the AD-inducing reagent shown in Table 2 as below was uniformly applied to the ear auricle using a micropipette tip, thereby inducing atopic dermatitis for the first time. After shaving with a razor for necessary, 150 μL of a 4% SDS aqueous solution was uniformly applied to the ear auricle using a micropipette, dried with a cold air using a dryer, and air-dried for about 2 to 3 hours. Then, 100 mg of the same AD-inducing reagent was uniformly applied to the ear auricle using a micropipette tip, thereby inducing atopic dermatitis after 2 times. All treatments were carried out twice a week to be 6 times for a total of 3 weeks, thereby producing atopic dermatitis animal model. The mice of groups 2 to 5 were obtained by the atopic dermatitis animal model prepared in Experimental Method 3 as described above. The experimental substance and the control substance were uniformly applied to the ear auricle using a micropipette tip. From the day of the experimental substance administration (Day 0) to the day of the autopsy (Day 14), they were administered once a day for 2 weeks. Ear thickness was measured for each individual by calipers, and the ear area was photographed. Ear thickness measurement and photographing were performed once a week on the day of starting the experimental substance administration and thereafter.

[2] = system: HeLa cells; assay: ACP-tetrapeptide cell membrane permeation experiment; type: cell-based; details: 3, 15 and 30 μM ACP-tetrapeptide-FITC for 3 hours, fluorescence microscopy, FIG. 14
Experimental: HeLa cells were inoculated in a 12-well plate containing glass at a density of 1×10^5 cells/well and cultured for 24 hours to attach the cells to the glass. Then, HeLa cells were treated with 3 μM ACP-FITC peptide and 3, 15, and 30 μM ACP-tetrapeptide-FITC peptide for 3 hours. After 3 hours, the cells were washed three times with PBS. Then, the cells were fixed with 3.7% formaldehyde for 20 minutes and treated with PBS containing 0.2% Triton X-100 to increase cell permeability. Then, the cells were blocked with 3% BSA for 1 hour, reacted with a tubulin antibody (Santa Cruz Biotechnology, U.S.A.) at room temperature for 2 hours, and washed three times with PBS. Next, the cells were treated with a Cy3-conjugated secondary antibody (Jackson ImmunoResearch, USA) at room temperature for 1 hour, washed twice with PBS, and then stained with 4′,6-diamidino-2-phenylindole (DAPI) for 10 minutes. Finally, the HeLa cell-attached glass was removed and mounted on a sliding glass. The cells were observed under a fluorescence microscope (DMil, Leica, Germany).

[3] = system: IgE; assay: ELISA analysis of serum IgE in atopic dermatitis animal model; details: day of autopsy (Day 14)
[4] = system: histamine; assay: ELISA analysis of serum histamine in atopic dermatitis animal model; type: in vivo, NC/Nga mouse; details: day of autopsy (Day 14)
Experimental: (§1) After the ear auricle of the NC/Nga mouse was shaved with a razor, the epilating agent was applied in an appropriate amount for the complete depilation. After the epilating agent was wiped off, Then, 100 mg of the AD-inducing reagent shown in Table 2 as below was uniformly applied to the ear auricle using a micropipette tip, thereby inducing atopic dermatitis for the first time.
(§2) After shaving with a razor for necessary, 150 μL of a 4% SDS aqueous solution was uniformly applied to the ear auricle using a micropipette, dried with a cold air using a dryer, and air-dried for about 2 to 3 hours. Then, 100 mg of the same AD-inducing reagent was uniformly applied to the ear auricle using a micropipette tip, thereby inducing atopic dermatitis after 2 times. All treatments were carried out twice a week to be 6 times for a total of 3 weeks, thereby producing atopic dermatitis animal model.
(§3) The mice of groups 2 to 5 were obtained by the atopic dermatitis animal model prepared in Experimental Method 3 as described above.
(§4) The experimental substance and the control substance were uniformly applied to the ear auricle using a micropipette tip. From the day of the experimental substance administration (Day 0) to the day of the autopsy (Day 14), they were administered once a day for 2 weeks.
On the day of the autopsy, blood samples were collected from the abdominal vein using a syringe. The serum isolated from the blood was analyzed for IgE and histamine using an ELISA kit.

[5] = system: atopic dermatitis animal model; assay: Histopathological examination of ear epidermis and dermis (H&E scoring); type: in vivo, NC/Nga mouse; details: infiltration by inflammatory cells, p<0.05, FIGS. 8 and 9
Experimental: After the ear auricle of the NC/Nga mouse was shaved with a razor, the epilating agent was applied in an appropriate amount for the complete depilation. After the epilating agent was wiped off, Then, 100 mg of the AD-inducing reagent shown in Table 2 as below was uniformly applied to the ear auricle using a micropipette tip, thereby inducing atopic dermatitis for the first time. After shaving with a razor for necessary, 150 μL of a 4% SDS aqueous solution was uniformly applied to the ear auricle using a micropipette, dried with a cold air using a dryer, and air-dried for about 2 to 3 hours. Then, 100 mg of the same AD-inducing reagent was uniformly applied to the ear auricle using a micropipette tip, thereby inducing atopic dermatitis after 2 times. All treatments were carried out twice a week to be 6 times for a total of 3 weeks, thereby producing atopic dermatitis animal model. The mice of groups 2 to 5 were obtained by the atopic dermatitis animal model prepared in Experimental Method 3 as described above. The experimental substance and the control substance were uniformly applied to the ear auricle using a micropipette tip. From the day of the experimental substance administration (Day 0) to the day of the autopsy (Day 14), they were administered once a day for 2 weeks. On the day of the autopsy, ears were removed for the histopathological examination and fixed in 10% neutral buffered formalin solution. The fixed tissues were subject to the general tissue treatment such as reprofiling, dehydration, paraffin embedding, and dissection, thereby preparing specimens for histopathological examination. Then, hematoxylin and eosin (H & E) and TUNEL assays were performed on histopathologic specimens, and the light microscopy (Olympus BX53, Japan) was used to observe histopathologic changes. In the histopathologic evaluation using hematoxylin and eosin staining slides, in order to compare the degree of the lesion with the induced control group, the most severe lesion was selected, and then the hypertrophy, hyperkeratosis and infiltration by inflammatory cells were evaluated in the epidermis. In the dermis, the infiltration by inflammatory cells was evaluated. Scoring criteria are the same as 0 (no symptoms), 1 (mild), 2 (moderate), and 3 (severe) (Taniguchi Y et al 2003).

[6] = system: atopic mouse skin tissues; assay: Immunohistochemical staining of atopic mouse skin tissue (angiogenic marker, inflammatory cells, keratin); type: in vivo, NC/Nga mouse; details: atopic mouse skin tissue, also similar to prednisolone treated group
Experimental: as §1, §2, §3, §4
Atopy mouse skin tissues were immersed in Xylene three times for 5 minutes, 100% ethanol for 2 minutes, 95% ethanol for 2 minutes, 90% ethanol for 2 minutes, 70% ethanol for 2 minutes and D.W. for 2 minutes to remove paraffin and to perform hydration. After washing with PBS, they were treated with 0.2% Triton X-100 to increase cell permeability. After re-washing with PBS, they were reacted with blocking solution, 3% bovine serum albumin, for 1 hour. For inflammatory cells and keratin staining, they were reacted with F4/80 (sc-377009, Santa Cruz) and cytokeratin (NB600-579, NOVUSBIO) antibodies, respectively, at room temperature for 2 hours. After washing with PBS, they were treated with Texas Red (ab6787, Abcam) secondary antibody and reacted at room temperature for 60 minutes. The mounting solution was dropped on the tissue of the slide. Then, the tissue was covered with a cover slide, and the sample was observed under a fluorescence microscope. For analysis of the degree of angiogenesis, the atopic skin tissue was reacted with FITC-conjugated isolectin B4 (L2895, Sigma), a blood vessel marker at room temperature for 2 hours. The mounting solution was dropped on the tissue of the slide. Then, the tissue was covered with a cover slide, and the sample was observed under a fluorescence microscope
The mouse skin tissues stained with the respective markers were photographed using a fluorescence microscope (DMil, Leica, Germany), and fluorescence intensities were quantitatively analyzed using an ImageJ program (NIH, Bethesda, Md., USA).

VKCFNCGKEGHTARNCRAPRKKGCWKCGKEGHQMKDCTERLYE (ACP-tetrapeptide) [ACP cell penetrating peptide linked at the N-terminal of the tetrapeptide]
ear thickness compared with induced control group (group 2) ([1]; 7th and 14th day after administration, tetrapeptide 0.622, ACP-tetrapeptide 4.987, prednisolone 50 μg/ear once a day, p<0.001 or p<0.01): significantly thinner | ear thickness compared with normal control group (group 1) ([1]; 14th day after administration, p<0.001): significantly thicker | cell membrane permeability (transfer into cells) [2]: transferred into the cells through ACP in a concentration-dependent manner without aggregation in the cell membrane | IgE level compared with prednisolone treated group ([3]; FIG. 7): lower than that of the prednisolone treated group | IgE level compared with group 2 (induced control) ([3]; p<0.001 or p<0.01, FIG. 7): significantly lower | IgE level compared with normal control group ([3]; p<0.001 or p<0.01, FIG. 7): significantly higher | histamine level compared with prednisolone treated group ([4]; FIG. 7): lower than that of the prednisolone treated group | histamine level compared with group 2 (induced control) ([4]; p<0.001 or p<0.01, FIG. 7): significantly lower | epidermis score level compared with group 2 ([5]; hypertrophy, hyperkeratosis): significantly lower | dermis score level compared with group 2 [5]: significantly lower | angiogenesis (Isolectin B4 staining) ([6]; FIG. 10): lower than that of the inducted control group | inflammatory cell inflow (F4/80 staining) ([6]; FIG. 11): lower than that of the inducted control group | keratinization and fibrosis (cytokeratin staining) ([6]; FIG. 12): lower than that of the inducted control group
